Results: patent US8906888B2, “Low-calcemic 16,23-diene 25-oxime analogs of 1α,25-dihydroxy vitamin D3” (Cytochroma Inc., priority 2005, dated 2014)

Assays:
[1] = biological target: T1, DBP (vitamin D binding protein) (Homo sapiens, UniProt P02774); test: DBP binding assay (human plasma, [3H]-25(OH)D3 displacement); details: human plasma diluted 1:5000; read-out: B50 (DBP binding, displacement of 50 percent [3H]-25(OH)D3)
T1 construct: Human plasma diluted to 1:5000 with Tris buffer/gelatin solution; from tissue; host or cells: human plasma
T1 sequence (P02774 17-474): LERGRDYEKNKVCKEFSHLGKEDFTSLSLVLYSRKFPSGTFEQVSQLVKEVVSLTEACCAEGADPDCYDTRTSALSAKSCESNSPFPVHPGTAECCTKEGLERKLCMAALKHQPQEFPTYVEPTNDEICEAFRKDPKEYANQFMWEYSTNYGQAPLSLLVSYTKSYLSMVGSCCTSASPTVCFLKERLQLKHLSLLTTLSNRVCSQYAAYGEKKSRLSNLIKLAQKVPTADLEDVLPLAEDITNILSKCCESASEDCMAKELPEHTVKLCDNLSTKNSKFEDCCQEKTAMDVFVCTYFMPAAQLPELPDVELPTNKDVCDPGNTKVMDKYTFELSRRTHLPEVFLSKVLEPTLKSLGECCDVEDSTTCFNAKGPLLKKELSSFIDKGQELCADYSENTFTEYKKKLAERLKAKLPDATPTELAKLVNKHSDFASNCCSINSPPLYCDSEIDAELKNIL
Protocol: 1. Tris buffer: • 22.50 g Tris-HCI • 500 ml H2O
5. DBP (vitamin D binding protein) (human plasma)
2. Dextran Coated Charcoal Solution • (1) preparation of charcoal solution • Norit decolorizing neutral charcoal 2.0 g • Tris buffer 150 mL • Stirring • (2) preparation of dextran solution • Dextran T—70 0.2 g • Tris buffer 50 ml • (3) preparation of dextran coated charcoal solution • Slowly dripped the dextran solution into charcoal solution with stirring. • Kept refrigerated overnight. • Thirty minute before use, kept it on ice with continuous mixing. • This solution can be kept in 4° C. for 2 month.
4. DBP Solution • Human plasma diluted to 1:5000 with Tris buffer/gelatin solution
8. [^3H-26,27]-[…] Solution • Stock solution diluted in Tris buffer, 20,000 CPM/50 μl. (C) Assay
(D) Calculation: • The amount of 25(OH)D3 to displace 50 percent [3H]-25(OH)D3 was calculated as B50 for 25(OH)D3 DBP binding. The DBP binding of other compounds was calculated as B50 relative to a value of 1 for 25(OH)D3.

BxPC-3 cells = test: [3H]-Thymidine proliferation assay with BxPC-3 cells; assay type: cell-based; details: pancreatic cancer cells, 3 days, 3H-thymidine incorporation
Protocol: 1. Preparation of Cell Suspension • When BxPC-3 cells were 70-80% confluent, aspirated media. Washed the cells with 1×PBS. Trypsinized with trypsin-EDTA from the plate, collected cells from the tissue culture flask, centrifuged (500×g, 5 min) and resuspended in media.
2. Cell Plating. • Counted the cells and adjusted the cell density to 2,000/ml. Added 200 μl per well in a 96 well plate. Incubated plate for 24 h at 37° C. in a humidified atmosphere plus 5% CO2. Aspirated used media and replaced with 175 μl per well with media.
3. Substrate Addition. • Added 25 μl of compound (final concentration 10^−7 M, 5×10^−8 M, 10^−8M, 5×10^−9 M, 10^−10 M or 0 M) into each designated well. Incubated plates for 3 days at 37° C. in a humidified atmosphere plus 5% CO2.
4. ^3H-Thymidine Incorporation. • Added ^3H-thymidine at 0.02 μCi per well and incubated at 37° C. in a humidified atmosphere plus 5% CO2 for 6 h.
5. Plate Harvesting. • Aspirated all media and washed cells with 1×PBS. Trypsinized cells for 30 min at 37° C. in a humidified atmosphere plus 5% CO2. Harvested cells onto a 96 well filter plate (Millipore) using a Tomtec Cell Harvestor, according to manufacturers instructions.
6. Scintillation Counting. • Added 25 μl of scintillation fluid per well. Counted the plate using a scintillation counter. Results: Compound (20R)-I(e) inhibited BxPC-3 cell proliferation.

Question: `C=C1/C(=C\C=C2/CCC[C@]3(C)C([C@H](C)C/C=C/C(=NOC)C(C)(C)C)=CC[C@@H]23)C[C@@H](O)C[C@@H]1O` [(20R)-I(e)] was tested. Which IC50 [1] did it give?
Answer: The IC50 was over 3.5 µM.

Question: What about the “Inhibition of BxPC-3 cell proliferation” value (BxPC-3 cells) of the same compound?
Answer: Its value is “inhibited”.
